Measurements as given in patent publication US4207326A, “Antimicrobial quaternary pyrazole derivatives” (Cilag-Chemie A.G., priority 1979, dated 1980).
Where two headings read alike, the source gives them in different places.

How the values were obtained:
S. aureus = assay: Antibacterial activity: Minimum Inhibitory Concentration; assay type: cell-based, Staphylococcus aureus ATCC 6538; conditions: 24 hours; for MIC: Staphylococcus aureus
Protocol: (§1) The antimicrobial activity was determined by inoculation of the test microorganism into suitable growth media containing solutions of the compounds at concentrations of 100, 50, 10, 5, 1.0, 0.5 and 0.1 μg/ml. The reference antibiotics used were Gentamicin for the antibacterial tests and Amphotericin B for the antimycotic and antifungal tests. After incubation the antimicrobial activity was recorded as the Minimal Inhibitory Concentration (M.I.C.), i.e., the lowest concentration preventing macroscopically visible growth, for each test compound against each organism.
(§2) An initial solution of each formula (I) compound to be tested in sterile distilled water was prepared at a concentration of 1000 μg/ml. With appropriate dilutions using sterile distilled water, additional solutions were prepared at concentrations of 500, 100, 50, 10, 5 and 1 μg/ml.
(§3) They were cultured and maintained on Tryptone Soy Agar (Oxoid CM 131), with the addition of 10% horse blood for the S. pyogenes.
(§4) To prepare the organisms as inocula for the test, slopes of this medium were streaked with the organisms and incubated at 37° C. for 24 hours. 4.5 Ml volumes of Brian-Heart Infusion Broth (Oxoid CM 225) were then inoculated with a platinum loop from the agar slope cultures and incubated for 24 hours at 37° C. The final inocula were then prepared by adding 0.1 ml aliquots of the Brain-Heart Infusion Broth cultures to 100 ml volumes of sterile physiological saline.
(§5) (a) For the test on each of the bacterial strains and each of the test and reference compounds, a series of 8 tubes containing 4.5 ml volumes of Brain-Heart Infusion Broth (Oxoid CM 225) were prepared. To 7 of these were added 0.5 ml volumes of the final solutions of the test compouns, giving final concentrations in the broths of 100, 50, 10, 5, 1.0, 0.5 and 0.1 μg/ml. To the eighth tube in each series was added 0.5 ml of the solvent used and diluted as for the preparation of the 1000 μg/ml solution of the compound. This tube was used as the growth control. The tubes were inoculated with 0.02 ml aliquots of the inocula prepared in accordance with "(a) Bacteria" above, and incubated at 37° C. for 24 hours. The tubes were then examined for evidence of bacterial growth as shown by turbidity of the medium and the lowest concentration of the test compound which prevented bacterial growth was recorded as the Minimal Inhibitory Concentration. This test procedure was carried out on two separate days.

E. coli = assay: as above; assay type: cell-based, Escherichia coli ATCC 8739; conditions: 24 hours; for MIC: Escherichia coli
Protocol: as §1, §2, §3, §4, §5

C. albicans = assay: Antimycotic activity: Minimum Inhibitory Concentration; assay type: cell-based, Candida albicans ATCC 10231; conditions: for Minimum Inhibitory Concentrations: C. albicans; for MIC: Candida albicans
Protocol: as §1, §2
The two species, C. albicans and C. tropicalis, were maintained on Sabouraud-Dextrose Agar (Oxoid CM41) and cultures for the preparation of the inoculum were incubated on this agar at 37° C. for 48 hours. 4.5 Ml volumes of citric acid-phosphate buffer pH 5.5 plus Yeast-Nitrogen Base (Difco 0392-15) were then inoculated from the agar cultures and incubated at 37° C. for 48 hours. 0.1 Ml aliquots of these cultures were then added to 100 ml volumes of sterile physiological saline to give the final inocula.
(§6) (b) For the tests on each of the C. albicans, C. tropicalis and C. neoformans strains and each of the test and reference compounds, a series of 8 tubes containing 4.5 ml volumes of citric acid-phosphate buffer pH 5.5 plus Yeast-Nitrogen Base (Difco 0392-15) were prepared. To 7 of these were added 0.5 ml volumes of the final solutions of the test compounds, giving final concentrations in the broths of 100, 50, 10, 5, 1.0, 0.5 and 0.1 μg/ml. To the eighth tube in each series was added 0.5 ml of the solvent used and diluted as for the preparation of the 1000 μg/ml solution of the compound. This tube was used as the growth control. The tubes were then inoculated with 0.1 ml aliquots of the inocula prepared as in "(b) Fungi" above. The tubes inoculated with the C. albicans and C. tropicalis were inoculated at 37° C. for 72 hours and the tubes inoculated with the C. neoformans straim were incubated at 30° C. for 72 hours. […] The tubes were then examined for evidence of growth as shown by turbidity of the medium and the lowest concentration of the test compound which prevented fungal growth was recorded as the Minimal Inhibitory Concentration. This test procedure was carried out on two separate days.

C. neoformans = assay: as above; assay type: cell-based, Cryptococcus neoformans NCPF 3184; conditions: pH 5.5, 30° C., 72 hours; for Minimum Inhibitory Concentrations: C. neoformans; for MIC: Cryptococcus neoformans
Protocol: as §1, §2
The C. neoformans was also maintained on Sabouraud-Dextrose Agar (Oxoid CM 41), but in this case cultures for the preparation of the inoculum were incubated on this agar at 30° C. for 48 hours. A 4.5 ml volume of citric acid-phosphate buffer pH 5.5 plus Yeast-Nitrogen Base (Difco-0392-15) was then inoculated from the agar culture and incubated at 30° C. for 48 hours. A 0.1 ml aliquot of this culture was then added to 100 ml sterile physiological saline to give the final inoculum.
as §6

P. verrucosa = assay: Antifungal activity: Minimum Inhibitory Concentration; assay type: cell-based, Phialophore verrucosa NCPF 1119; conditions: P. verrucosa, 27° C., one week; for MIC: Phialophora verrucosa, read-out: Minimum Inhibitory Concentration
Protocol: as §1, §2
The A. corymbifera, A. fumigatus, S. schenkii, T. rubrum, T. mentagrophytes, M. canis and P. verrucosa strains were all maintained on Sabouraud-Dextrose Agar (Oxoid CM 41) by incubating for 14 days at 27° C. To prepare the inocula 30 ml volumes of Sabouraud-Liquid medium (Oxoid CM 147) were inoculated from the agar cultures and incubated at 27° C. until heavy uniform growth resulted. The mycelial growth was then broken up by shaking with glass beads.
1 Ml aliquots were removed from each of the cultures for the purpose of making viable counts and the cultures were then held at 4° C. The viable counts were made by preparing serial ten-fold dilutions of the cultures in sterile physiological saline and spreading on plates of Sabouraud-Dextrose Agar (Oxoid CM 41) which were then incubated at 27° C. for 14 days. When the viable counts had confirmed that each of the inocula contained approximately 10^6 colony forming units (C.F.U.) per ml the cultures were withdrawn from the refrigerator and used as the inocula for the tests.
(c) For the tests on each of the remaining seven strains and each of the test and reference compounds, a series of 8 tubes containing 4.5 ml volumes of Sabouraud-Liquid Medium (Oxoid CM 147) were prepared. To 7 of these were added 0.5 ml volumes of the final solutions of the test compounds, giving final concentrations in the broths of 100, 50, 10, 5, 1.0, 0.5 and 0.1 μg/ml. To the eighth tube in each series was added 0.5 ml of the solvent used and diluted as for the preparation of the 500 μg/ml solution of the compound. This tube was used as a growth control. The tubes were then inoculated with 0.1 ml aliquots of the inocula prepared as in "(b) Fungi" above. The tubes were then incubated at 27° C. with continuous shaking for a period of one week. The tubes were then examined for evidence of growth as shown by the presence of mycelial growth in the medium and the lowest concentration of the test compound which prevented fungal growth was recorded as the Minimal Inhibitory Concentration. This test procedure was carried out on two separate days.

[1] = Day 1, pH 5.5, 37° C., 72 hours
[2] = Day 2, pH 5.5, 37° C., 72 hours
[3] = pH 5.5, C. albicans, Day 1, pH 5.5, 37° C., 72 hours, read-out: Minimum Inhibitory Concentrations
[4] = pH 5.5, C. albicans, Day 2, pH 5.5, 37° C., 72 hours, read-out: Minimum Inhibitory Concentrations
[5] = pH 5.5, C. neoformans, Day 1, read-out: Minimum Inhibitory Concentrations
[6] = pH 5.5, C. neoformans, Day 2, read-out: Minimum Inhibitory Concentrations

Row | Molecule | Minimum Inhibitory Concentrations (C. albicans; [2]) [µg/mL] | Minimum Inhibitory Concentration (P. verrucosa; Day 2) [µg/mL] | MIC (S. aureus; Day 1, 37° C.) [µg/mL] | MIC (S. aureus; Day 2, 37° C.) [µg/mL] | MIC (E. coli; Day 1, 37° C.) [µg/mL] | MIC (E. coli; Day 2, 37° C.) [µg/mL] | MIC (C. albicans; [3]) [µg/mL] | MIC (C. albicans; [4]) [µg/mL] | MIC (C. neoformans; [5]) [µg/mL] | MIC (C. neoformans; [6]) [µg/mL] | MIC (P. verrucosa; Day 1) [µg/mL] | MIC (P. verrucosa; Day 2) [µg/mL] | also measured
1 | 2,3(5)-dimethyl-1-hexadecyl-pyrazolium methosulfate [Example 9] | 10 | 10 |  |  |  |  |  |  |  |  |  |  | Minimum Inhibitory Concentration (S. aureus; Day 1, 37° C.): 0.5 µg/mL; Minimum Inhibitory Concentration (S. aureus; Day 2, 37° C.): 0.5 µg/mL; Minimum Inhibitory Concentration (E. coli; Day 1, 37° C.): 50 µg/mL; Minimum Inhibitory Concentration (E. coli; Day 2, 37° C.): 10 µg/mL; Minimum Inhibitory Concentrations (C. albicans; [1]): 5 µg/mL; Minimum Inhibitory Concentrations (C. neoformans; Day 1): 1 µg/mL; Minimum Inhibitory Concentrations (C. neoformans; Day 2): 0.5 µg/mL; Minimum Inhibitory Concentration (P. verrucosa; Day 1): 5 µg/mL
2 | CCCCCCCCCCCCCCCCn1c(C)cc(C)[n+]1C [Example 2, 1-hexadecyl-2,3,5-trimethyl-pyrazolium methosulfate] |  |  | 0.5 | 0.5 | 10 | 5 | 1 | 1 | 0.5 | 0.5 | 5 | 10 | 
3 | C=CCn1c(C)cc(C)[n+]1CCCCCCCCCCCCCCCC.[Br-] [Example 7, 2-allyl-3,5-dimethyl-1-hexadecyl-pyrazoliumbromide] |  |  | 0.5 | 0.5 | 10 | 5 | 5 | 1 | 1 | 0.5 | 5 | 5 | 
4 | 2,3(5)-dimethyl-1-dodecyl-pyrazolium methosulfate [Example 8-A] | 50 | 10 |  |  |  |  |  |  |  |  |  |  | Minimum Inhibitory Concentration (S. aureus; Day 1, 37° C.): 1 µg/mL; Minimum Inhibitory Concentration (S. aureus; Day 2, 37° C.): 0.5 µg/mL; Minimum Inhibitory Concentration (E. coli; Day 1, 37° C.): 50 µg/mL; Minimum Inhibitory Concentration (E. coli; Day 2, 37° C.): 50 µg/mL; Minimum Inhibitory Concentrations (C. albicans; [1]): 10 µg/mL; Minimum Inhibitory Concentrations (C. neoformans; Day 1): 5 µg/mL; Minimum Inhibitory Concentrations (C. neoformans; Day 2): 1 µg/mL; Minimum Inhibitory Concentration (P. verrucosa; Day 1): 10 µg/mL
5 | CCCCCCCCCCCCn1ccc[n+]1C [Example 3-E, 1-dodecyl-2-methy-pyrazolium methosulfate] |  |  | 1 | 1 | 50 | 50 | 50 | 50 | 1 | 5 | 5 | 10 | 
6 | CCCCCCCCCCCCCCCC[n+]1c(C)cc(C)n1C.Cc1ccc(S(=O)(=O)[O-])cc1 [Example 6-C, 1-hexadecyl-2,3,5-trimethylpyrazolium p-toluene sulfonate] | 5 | 5 | 0.5 | 0.5 | 10 | 10 |  |  |  |  |  |  | MIC (C. albicans; pH 5.5, read-out: Minimum Inhibitory Concentrations): 5 µg/mL; MIC (C. neoformans; pH 5.5, read-out: Minimum Inhibitory Concentrations, C. neoformans, Day 1): 1 µg/mL; MIC (C. neoformans; pH 5.5, read-out: Minimum Inhibitory Concentrations, C. neoformans, Day 2): 1 µg/mL
7 | CCCCCCCCCCCC[n+]1c(C)cc(C)n1Cc1ccc(Cl)cc1.[Br-] [Example 6-E, 2-(p-chlorobenzyl)-3,5-dimethyl-1-dodecyl-pyrazolium bromide] |  |  | 0.5 | 0.5 | 10 | 10 | 1 | 5 | 0.5 | 0.5 | 5 | 5 | 
8 | CCCCCCCCCCCCCCn1ccc[n+]1C [Example 3-G, 2-methyl-1-tetradecyl-pyrazolium methosulfate] |  |  | 0.5 | 0.5 | 10 | 10 | 5 | 5 | 1 | 1 | 5 | 5 | 
9 | CCCCCCCCCCCCCC[n+]1c(C)cc(C)n1Cc1ccc([N+](=O)[O-])cc1.[Br-] [Example 6-D, 3,5-dimethyl-2(4-nitrobenzyl)-1-tetradecyl-pyrazolium bromide] |  |  | 1 | 0.5 | 50 | 100 | 10 | 5 | 0.5 | 0.5 | 10 | 10 | 
10 | CCCCCCCCCCCC[n+]1c(C)cc(C)n1Cc1ccc(Cl)cc1Cl.[Br-] [Example 6-B, 2-(2,4-dichlorobenzyl)-3,5-dimethyl-1-dodecyl-pyrazolium bromide] |  |  | 0.5 | 0.5 | 10 | 5 | 5 | 5 | 1 | 1 | 5 | 5 | 
